Experimental data as given in patent US8937052B2, “Therapeutic protocols using hyaluronan” (Alchemia Oncology Pty Limited, priority 2005, dated 2015).
Structures can show the parent of a compound that is named as a salt.

Tests used:
[1] = irinotecan 30 mg/kg i.v.
[2] = irinotecan 60 mg/kg i.v. (HyCAMP 26.6/60); 90 minute time point
[3] = irinotecan 30 mg/kg i.v. (HyCAMP 26.6/30); 120 min
[4] = In situ perfusion: survival until experimental end-point; assay type: in vivo, Wistar rats; conditions: irinotecan 60 mg/kg single i.v.
Carboxylesterase = Carboxylesterase activity in tissue homogenates of the liver and the GI-tract; assay type: biochemical
Description: Carboxylesterase • 2. beta-glucuronidase
Tissue homogenates of the liver and the GI-tract were used as the source of each enzyme. […] In addition to this mechanism, inhibition of beta-glucuronidase in the lumen of the GI tract would prevent the generation of SN-38 from SN-38G.

[5] = in vivo
Description: HA. […] All body organs and fluids were removed, weighed and [^3H] radioactivity quanitated using β-scintillation counting.

[6] = biological target: T1, tumour cell endogenous beta-glucuronidase (Homo sapiens, UniProt P08236); test: Endogenous beta-glucuronidase activity in tumour cell lysates incubated overnight with HA, compared to samples not containing hyaluronan; assay type: biochemical; conditions: modelled from ≧2 μg of HA per μg tumour cell protein and 0.135 ng protein/cell
T1 construct: Activity of Endogenous Beta-Glucuronidase in Tumor Cells In Vitro; endogenous in cells; host or cells: HCT-116, LIM-1215, LIM-2099, SK-CO1, SW-1222, HT-29, SW-620, MSTO-211H, MDA-MB-468, MDA-MB-435 lysates
T1 sequence (P08236 23-651): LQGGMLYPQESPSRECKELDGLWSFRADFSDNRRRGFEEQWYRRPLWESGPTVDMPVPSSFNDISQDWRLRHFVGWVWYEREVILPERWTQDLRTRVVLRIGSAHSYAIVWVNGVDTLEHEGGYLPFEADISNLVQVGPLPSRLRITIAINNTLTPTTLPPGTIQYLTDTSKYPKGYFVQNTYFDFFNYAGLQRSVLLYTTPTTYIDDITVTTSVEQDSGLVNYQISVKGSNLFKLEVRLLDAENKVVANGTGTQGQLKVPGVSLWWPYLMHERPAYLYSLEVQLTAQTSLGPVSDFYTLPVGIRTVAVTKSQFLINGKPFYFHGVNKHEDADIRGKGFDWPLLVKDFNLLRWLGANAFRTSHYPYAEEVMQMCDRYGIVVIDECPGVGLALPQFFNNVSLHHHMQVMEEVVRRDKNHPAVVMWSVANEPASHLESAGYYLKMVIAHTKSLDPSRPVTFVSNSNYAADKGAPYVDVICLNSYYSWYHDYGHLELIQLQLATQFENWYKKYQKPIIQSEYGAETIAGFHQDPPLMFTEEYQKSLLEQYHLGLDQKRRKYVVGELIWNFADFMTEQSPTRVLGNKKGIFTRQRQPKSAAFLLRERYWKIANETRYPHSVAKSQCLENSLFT
Procedure: Stocks of the tumor cell lysates (0.8 mg protein/ml) were prepared from the original cell lysates. The hyaluronan stock of 10 mg/ml (10 kDa & 860 kDa) was diluted with potassium phosphate buffer to achieve 8 mg/ml, 3.2 mg/ml, 1.6 mg/ml, 0.4 mg/ml, 0.2 mg/ml, 0.04 mg/ml, 0.02 mg/ml and 0.0008 mg/ml of hyaluronan. The 25 mg/ml of <2 kDa HA was diluted further with potassium phosphate buffer to achieve 8 mg/ml, 3.2 mg/ml, 1.6 mg/ml, 0.4 mg/ml, 0.2 mg/ml, 0.04 mg/ml, 0.02 mg/ml and 0.0008 mg/ml of hyaluronan. The assay samples were prepared by aliquoting 125 μl of the different dilutions of hyaluronan to an Eppendorf tube containing 125 μl of 0.8 mg protein/ml cell lysates of the following cell lines; HCT-116, LIM-1215, LIM-2099, SK-CO1, SW-1222, HT-29, SW-620, MSTO-211H, MDA-MB-468 and MDA-MB-435. […] On completion of the incubation, the samples were thoroughly mixed by repeated invert mixing (˜20 times) after which the beta-glucuronidase was quantified using the 96-well-plate method.
The assay was performed in the wells of a black clear-bottom 96-well-plate where 50 μL of the tumour cell lysates (20 μg protein) were added to the wells and 50 μL of 75 mM of potassium phosphate buffer was used as the control blanking well. […] On completion of the incubation, 50 μL of stop buffer was added and the plate was read at 350 nm excitation and 450 nm emission on a Fluostar Optima plate reader.

| HA per tumour cell [5] | HA that would accumulate per gram of tumour [5] | HA per cell resulting in stimulation of endogenous beta-glucuronidase activity [6] [pg HA/cell] | Compound | quantities of SN-38 found in the spleen and lung [1] | cumulative biliary excretion of CPT-11 [2] [µg] | cumulative intestinal exsorption of CPT-11 [3] [µg] | survival until experimental end-point [4] | effect on carboxylesterase activity (Carboxylesterase) |
| --- | --- | --- | --- | --- | --- | --- | --- | --- |
| – | – | – | CCc1c2c(nc3ccc(OC(=O)N4CCC(N5CCCCC5)CC4)cc13)-c1cc3c(c(=O)n1C2)COC(=O)[C@]3(O)CC [CPT-11, Irinotecan hydrochloride] | could not be detected | 1388 | 525 | only one rat survived | – |
| 51.6 pg of HA/cell | approximately 51.6 mg | ≥ 270 | hyaluronan [HA] | – | – | – | – | did not affect the activity of carboxylesterase |
